Here are results for 2 molecules from patent publication US20060217390A1, “Cycloalkl, aryl and heteroaryl amino isothiazoles for the treatment of Hepatitis C virus” (priority 2005, published 2006).

The test system of assay [1] is resistant replicon cell lines (w1, w3 and w4). As to the kind of experiment: Sensitivity of resistant replicon cell lines, HCV replicon RNA by quantitative RT-PCR. The assay is classed as cell-based. The conditions noted are these: for EC50: Hepatitis C virus, 72 h, HCV replicon RNA by RT-PCR, 72 hours of treatment; for Fold over wild-type: fold of EC50. The method, then:
(§1) A replicon-containing cell line (I389/NS3-3) was used to select the resistant replicons against Compound 1 (Lohmann et al., Science 285:110-113, 1999). Replicon cells were plated in a 100 mm dish, under a subconfluent condition (approximately at 40% confluency). After 24 hours, Compound 1 was added to the cells with the final concentration of 2 μM in the medium containing 1 mg of G418 per ml. After 3 weeks, colonies of cells resistant to Compound 1 were isolated and expanded. Three independent cell lines (w1, w3 and w4) with growth rate similar to that of the parental replicon cells were selected to test for their sensitivity to Compound 1.
(§2) To confirm that viral RNAs in the selected cell lines were resistant to Compound 1, the cells were treated with the compound with concentrations from 0.05 to 5 μM. After 72-hours of treatment, cells were lysed and the cell lysates were diluted with RNase-free water, from which 5 μl was used to quantify the HCV replicon RNA by using real-time quantitative reverse transcriptase (RT) PCR assay (Cheney et al., Virology 297:298-306, 2002). Same quantitative RT-PCR protocol was used to determine the level of the cellular glyceraldhehyde-3-phosphate dehydrogenase (GAPDH) RNA in the same cell lysate, which served as an internal control to normalize the difference of total RNAs. To calculate the EC50 values of Compound 1 against the resistant cell lines, the relative cycle threshold (CT) for the HCV and GAPDH was determined. […] Identification of the Molecular Target

Assay [2] relates to parental replicon cells (I389/NS3-3). Put plainly: Sensitivity of parental (wild-type) replicon cells, HCV replicon RNA by quantitative RT-PCR. The conditions noted are these: Wild-type replicon cell line; for EC50: Hepatitis C virus, HCV replicon RNA by RT-PCR, 72 hours of treatment; for Fold over wild-type: fold of EC50. The assay is classed as cell-based. The method, then:
as §1, §2

Assay [3] deals with T1, NS5B polymerase (Hepatitis C virus genotype 1b, UniProt Q9WMX2, C2735Y).
T1 construct: a single nucleotide change in the region of viral NS5B polymerase; expressed in transfected cells; host or cells: HCV subgenomic replicon cells (parental and Compound 1-resistant lines w1, w3, w4)
Put plainly: Identification of the molecular target (sequencing of resistant replicons). On the set-up: species or system HCV. Particulars: eight cDNA clones of three resistant cell lines (w1, w3 and w4). As for the experimental part:
To determine the targeted viral gene of Compound 1, total RNA was isolated from the resistant cell lines and from the parental replicon cells. The cDNA fragment encoding the HCV nonstructural proteins (NS3-NS5B) was amplified from the total cellular RNA by using a Thermoscript RT-PCR kit (Invitrogen). The cDNA fragments were cloned into pCR4-TOPO vector by using a TOPO TA cloning kit (Invitrogen). The entire DNA sequence of the HCV nonstructural coding region was determined for multiple independent cDNA clones.
Eight different cDNA clones were generated from three independently cell lines selected by Compound 1 (cell lines w1, w3 and w4) and three cDNA clones from the parental cell line.
On the technique in general: A replicon is a self-replicating genome or part of one, used to study replication in cells.

Structures are written as SMILES.

A word on the EC50: it is the concentration that produces a half-maximal response.

T1 sequence (Q9WMX2 2420-3010 C2735Y): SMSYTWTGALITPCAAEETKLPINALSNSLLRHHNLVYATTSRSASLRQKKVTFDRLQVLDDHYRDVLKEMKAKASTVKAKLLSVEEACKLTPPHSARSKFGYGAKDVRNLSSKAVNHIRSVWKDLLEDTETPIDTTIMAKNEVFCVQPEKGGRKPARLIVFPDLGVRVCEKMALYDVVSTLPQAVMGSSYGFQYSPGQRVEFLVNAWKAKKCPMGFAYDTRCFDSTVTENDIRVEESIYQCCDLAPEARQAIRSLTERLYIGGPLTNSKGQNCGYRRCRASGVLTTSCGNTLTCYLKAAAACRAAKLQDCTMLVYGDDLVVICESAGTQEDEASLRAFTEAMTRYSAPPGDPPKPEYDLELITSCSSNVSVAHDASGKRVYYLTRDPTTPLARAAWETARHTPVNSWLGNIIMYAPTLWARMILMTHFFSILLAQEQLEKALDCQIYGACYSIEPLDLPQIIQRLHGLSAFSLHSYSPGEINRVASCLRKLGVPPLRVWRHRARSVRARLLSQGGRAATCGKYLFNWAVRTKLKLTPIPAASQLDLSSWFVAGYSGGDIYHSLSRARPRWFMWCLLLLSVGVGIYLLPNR

In the case of `C[C@@]1(O)[C@H](O)[C@@H](CO)O[C@H]1n1cnc2c(N)ncnc21` [2′-C-methyl-adenosine], the EC50 in assay [1] (resistant cell line W1) came to 0.16 µM; in assay [1] (resistant cell line W3), 0.26 µM; in assay [1] (resistant cell line W4), 0.31 µM; in assay [2], 0.36 µM. The “sensitivity of resistant cell lines to inhibition” value in assay [1] (cell lines w1, w3, w4 selected with Compound 1) is “still sensitive to inhibition”. For the same molecule, the Fold over wild-type in assay [1] (resistant cell line W1) came out at 0.4; in assay [1] (resistant cell line W3) it was 0.7; in assay [1] (resistant cell line W4), 0.9; in assay [2] it was 1.
As for `N#Cc1c(Nc2cc(Cl)cc(Cl)c2)s[nH]c1=O` [Compound 1], in assay [3], the “mutation present in cDNA clones of cell lines selected by the compound” value was “cysteine at position 316 of NS5B polymerase to a tyrosine residue”. Further, the half-maximal effective concentration (EC50) in assay [1] (resistant cell line W1) was found to be 3.68 µM; in assay [1] (resistant cell line W3), 2.03 µM; in assay [1] (resistant cell line W4), 4.62 µM; in assay [2], 0.07 µM. In addition, the Fold over wild-type in assay [1] (resistant cell line W1) is on record as 52; in assay [1] (resistant cell line W3) it was 29; in assay [1] (resistant cell line W4), 66; in assay [2] it was 1.
